Source: the supplement of paper PMC13380429

What was measured:
Conditions in all cases: 72 h
Caco-2 [1] = assay: cell viability relative to DMSO; higher = less toxic
Calu-3 [2] = assay: as above
HepG2 [3] = assay: as above
U2OS [4] = assay: as above
Vero E6 [5] = assay: as above
Caco-2 [6] = assay: relative viability EC50 (midpoint between 100% and the lowest measured viability); higher = less toxic
Calu-3 [7] = assay: as above
HepG2 [8] = assay: as above
U2OS [9] = assay: as above
Vero E6 [10] = assay: as above
Caco-2 [11] = assay: drug sensitivity score (DSS) for viability; higher = more toxic; extreme values may be limits of the assay
Calu-3 [12] = assay: as above
HepG2 [13] = assay: as above
U2OS [14] = assay: as above
Vero E6 [15] = assay: as above

Compound	cell viability (Caco-2 [1]; 1 nM) [%]	cell viability (Caco-2 [1]; 10 nM) [%]	cell viability (Caco-2 [1]; 100 nM) [%]	cell viability (Caco-2 [1]; 1000 nM) [%]	cell viability (Caco-2 [1]; 10000 nM) [%]	cell viability (Calu-3 [2]; 1 nM) [%]	cell viability (Calu-3 [2]; 10 nM) [%]	cell viability (Calu-3 [2]; 100 nM) [%]	cell viability (Calu-3 [2]; 1000 nM) [%]	cell viability (Calu-3 [2]; 10000 nM) [%]	cell viability (HepG2 [3]; 1 nM) [%]	cell viability (HepG2 [3]; 10 nM) [%]	cell viability (HepG2 [3]; 100 nM) [%]	cell viability (HepG2 [3]; 1000 nM) [%]	cell viability (HepG2 [3]; 10000 nM) [%]	cell viability (U2OS [4]; 1 nM) [%]	cell viability (U2OS [4]; 10 nM) [%]	cell viability (U2OS [4]; 100 nM) [%]	cell viability (U2OS [4]; 1000 nM) [%]	cell viability (U2OS [4]; 10000 nM) [%]	cell viability (Vero E6 [5]; 1 nM) [%]	cell viability (Vero E6 [5]; 10 nM) [%]	cell viability (Vero E6 [5]; 100 nM) [%]	cell viability (Vero E6 [5]; 1000 nM) [%]	cell viability (Vero E6 [5]; 10000 nM) [%]	relative viability EC50 (Caco-2 [6]) [µM]	relative viability EC50 (Calu-3 [7]) [µM]	relative viability EC50 (HepG2 [8]) [µM]	relative viability EC50 (U2OS [9]) [µM]	relative viability EC50 (Vero E6 [10]) [µM]	drug sensitivity score (Caco-2 [11])	drug sensitivity score (Calu-3 [12])	drug sensitivity score (HepG2 [13])	drug sensitivity score (U2OS [14])	drug sensitivity score (Vero E6 [15])
OC[C@H]1O[C@H]([S-])[C@H](O)[C@@H](O)[C@@H]1O.[Au+] [aurothioglucose]	108	92.2	98.7	91.3	84.2	101	92.1	97.3	106	100	90.4	106	106	120	97.5	96.1	98.4	98.7	91.8	27.4	87.3	91.2	86.7	89.5	117	> 10	> 10	> 10	2.24	> 10	0.5	0	0	5.4	0
CN(C)C(=O)Oc1cc(OC(=O)N(C)C)cc(C(O)CNC(C)(C)C)c1 (stereo not given) [bambuterol]	97.7	94.5	89.6	103	104	95.8	98.6	99.2	89.4	117	96.1	97.2	99.1	96.9	95.6	96.4	93.5	95.5	101	104	99.8	97.9	93.1	90.3	101	> 10	> 10	> 10	> 10	> 10	0	0	0	0	0
O=C(/C=C/c1cccc(S(=O)(=O)Nc2ccccc2)c1)NO [belinostat]	87.9	96.6	89.3	21.6	0.6	90.7	89.2	86.6	41	9.9	98.5	98.7	87.6	22.4	0.3	94.6	94.9	81.9	16	0.9	93.2	92.9	83.4	8.4	0.1	0.412	0.506	0.406	0.29	0.252	15.9	13.1	16	17.7	18.8
CC[C@H](CC[C@@H](C)[C@H]1CC[C@H]2[C@@H]3CC=C4C[C@@H](O)CC[C@]4(C)[C@H]3CC[C@]12C)C(C)C [beta-Sitosterol]	95.1	108	99.4	97.6	107	91.6	105	99	93.7	106	88.3	114	93.3	98.8	109	96.4	99.1	99.6	101	97.4	92.7	105	92.4	99.2	108	> 10	> 10	> 10	> 10	> 10	0	0	0	0	0
COC(=O)/C=C/C(=O)N[C@@H]1CC[C@@]2(O)[C@H]3Cc4ccc(O)c5c4[C@@]2(CCN3CC2CC2)[C@H]1O5 [beta-funaltrexamine]	104	91.5	90	94.8	82.4	95.2	99.5	101	102	99.6	93.6	92.8	92.4	90.6	89.2	104	98.7	101	96.3	89.9	92.4	96.1	93.1	105	101	> 10	> 10	> 10	> 10	> 10	0.7	0	0	0	0
Nc1cc(C(F)(F)F)c(-c2cc(N3CCOCC3)nc(N3CCOCC3)n2)cn1 [buparlisib]	95.3	99	91.5	53.5	18	116	97.3	87.7	40.5	18	100	96.6	95.7	67.2	10.5	103	102	104	79.4	15.6	101	97	92.9	66.2	17.8	0.761	0.434	1.3	1.57	1.22	10.3	12.7	9.1	7.9	8.4
CS(=O)(=O)OCCCCOS(C)(=O)=O [busulfan]	109	93.4	92.1	84.1	96.5	101	104	89.7	99.6	106	107	92.9	112	95.8	79.2	102	95.9	105	98.4	100	94.9	94.8	99.6	86.2	84.5	> 10	> 10	> 10	> 10	> 10	0.2	0	1.2	0	1.3
C=CCC1(CC(C)C)C(=O)NC(=O)NC1=O [butalbital]	82.1	114	80.1	105	102	94.5	96.7	102	103	114	108	99.6	92.5	109	94.8	95.1	97.6	98.8	94.3	112	105	106	118	109	89.9	> 10	> 10	> 10	> 10	> 10	0	0	0	0	0
CCCC[C@H]1OC(=O)c2ccccc21 [butylphthalide]	111	95.2	102	88.9	102	103	96.8	98.3	95.5	104	104	107	97.2	97.8	94.9	102	98.9	102	95	98.7	103	91	105	106	101	> 10	> 10	> 10	> 10	> 10	0	0	0	0	0
CC[C@@]1(O)C(=O)OCc2c1cc1n(c2=O)Cc2cc3ccccc3nc2-1 [camptothecin]	100	87.6	56.4	9.4	25.5	97.9	88.4	59.8	40.4	14.2	87.8	63.4	36.7	6	1.4	95.8	101	86.5	52	3.7	94.9	96.4	68.7	37.4	4	0.0939	0.159	0.027	0.891	0.324	21.3	17.1	28.8	11.3	15.9
COc1ccc(Nc2nccc(NCCO)n2)cc1 [cardiogenol-C]	105	87.7	101	95.8	103	94.4	92.7	92.5	92.5	102	93.4	93.1	93.4	108	102	97.7	97.2	102	96.1	98.2	94.4	105	94.8	104	100	> 10	> 10	> 10	> 10	> 10	0	0	0	0	0
CC(C)(C)NCC(O)COc1cccc2c1CCC(=O)N2 (stereo not given) [carteolol]	100	96.1	95.8	98.1	95.7	94.8	109	104	92.9	104	101	87.8	100	101	105	98.5	101	95.9	97.2	93.9	96.3	95.9	98.4	99	98.3	> 10	> 10	> 10	> 10	> 10	0	0	0	0	0
CO/N=C(\C(=O)N[C@@H]1C(=O)N2C(C(=O)[O-])=C(C[N+]3(C)CCCC3)CS[C@H]12)c1csc(N)n1 [cefepime]	90.8	96.8	106	102	122	104	105	113	92.8	102	102	86	121	82.6	102	99.2	101	96.6	102	99.4	100	101	104	107	99.3	> 10	> 10	> 10	> 10	> 10	0	0	0	0	0
CO/N=C(\C(=O)N[C@@H]1C(=O)N2C(C(=O)OCOC(=O)C(C)(C)C)=C(C)CS[C@H]12)c1csc(N)n1 [cefetamet-pivoxil]	108	96.5	105	99.7	97.9	104	93.2	102	114	103	102	113	90.9	97.8	93	102	93.5	99.6	104	99.5	91.5	103	89.5	91.7	108	> 10	> 10	> 10	> 10	> 10	0	0	0	0	0
